One assay deals with T1, DGAT1 enzyme (Homo sapiens, UniProt O75907).
T1 construct: made in house
T1 sequence (O75907 1-488): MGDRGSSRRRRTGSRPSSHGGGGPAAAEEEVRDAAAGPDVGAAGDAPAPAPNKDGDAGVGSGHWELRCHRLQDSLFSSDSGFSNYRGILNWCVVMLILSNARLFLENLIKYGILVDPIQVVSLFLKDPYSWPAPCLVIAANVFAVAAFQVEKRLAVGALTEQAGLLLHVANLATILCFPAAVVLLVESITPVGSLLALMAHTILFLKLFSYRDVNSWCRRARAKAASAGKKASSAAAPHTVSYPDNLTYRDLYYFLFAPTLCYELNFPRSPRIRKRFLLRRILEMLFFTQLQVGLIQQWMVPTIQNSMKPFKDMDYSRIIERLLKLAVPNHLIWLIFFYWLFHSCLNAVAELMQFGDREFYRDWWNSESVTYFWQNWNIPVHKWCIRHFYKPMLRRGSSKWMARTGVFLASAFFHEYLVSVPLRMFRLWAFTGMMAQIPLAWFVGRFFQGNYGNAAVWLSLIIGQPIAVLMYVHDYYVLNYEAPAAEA
Nature of the assay: DGAT1 inhibitory activity test. It is filed as biochemical. To be noted: test compound concentration of 0.05 μg/ml; read-out: Inhibitory Rate. A digest of the protocol:
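Reaction at 23° C for 30 min in 175 mM Tris-HCl pH 8.0, 8 mM MgCl2, 1 mg/ml BSA, 0.5% Triton X-100 with 0.3 mM 1,2-dioleoyl-sn-glycerol and 10 μM [14C]-oleoyl-CoA. Triglyceride extracted into heptane, separated by TLC, radioactivity quantified; % inhibition versus vehicle control, 0-min background subtracted.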

The next assay concerns Male C57BL/6N mice. Nature of the assay: Triglyceride absorption suppression after fat loading (in vivo DGAT1 inhibitory effect). To be noted: Mus musculus, po; dose of 10 mg/kg or lower, orally administered, mice fasted overnight, plasma triglyceride after fat loading; read-out: Triglyceride absorption suppressive activity. An outline of the steps:
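Overnight-fasted male C57BL/6N mice dosed orally with compound (1 to 10 mg/kg in 0.5% methylcellulose), then given Pluronic-F127 1 g/kg i.p. and an oral 20% Intralipid load. Plasma triglyceride measured 1 to 4 h later. Absorption suppression (%) calculated against water-loaded and fat-loaded vehicle groups.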

Molecules are shown by their SMILES.

Regarding `COc1cc(F)cc(NC(=O)Nc2ccc3c(c2)CCN(C(=O)O[C@H]2CC[C@H](CC(=O)O)CC2)C3)c1` [Example 56, trans-6-[3-(3-fluoro-5-methoxy-phenyl)-ureido]-3,4-dihydro-1H-isoquinoline-2-carboxylic acid 4-carboxymethyl-cyclohexyl ester], at DGAT1 enzyme, the inhibition at 0.05 µg/mL is at least 50%. Further, the inhibition in vivo at up to 10 mg/kg in the assay with Male C57BL/6N mice is at least 60%.
`O=C(O)C[C@H]1CC[C@H](OC(=O)N2CCc3cc(NC(=O)NC4CCCCC4)ccc3C2)CC1` [Example 84, trans-6-(3-cyclohexyl-ureido)-3,4-dihydro-1H-isoquinoline-2-carboxylic acid 4-carboxymethyl-cyclohexyl ester]: the inhibition at 0.05 µg/mL at DGAT1 enzyme was at least 50%. In addition, the inhibition in vivo at up to 10 mg/kg with Male C57BL/6N mice is at least 60%.
In the same order, the values of `CC(C(=O)O)C1CCC(CC(=O)N2CCc3cc(NC(=O)Nc4ccccc4F)ccc3C2)CC1` (stereo not drawn) [Example 107, 2-[4-(2-{6-[3-(2-fluoro-phenyl)-ureido]-3,4-dihydro-1H-isoquinolin-2-yl}-2-oxo-ethyl)-cyclohexyl]-propionic acid] are at least 50% and at least 60%.
For the compound `Cc1ccc(NC(=O)Nc2ccc3c(c2)CCN(C(=O)O[C@H]2CC[C@H](CC(=O)O)CC2)C3)cc1C` [Example 78, trans-6-[3-(3,4-dimethyl-phenyl)-ureido]-3,4-dihydro-1H-isoquinoline-2-carboxylic acid 4-carboxymethyl-cyclohexyl ester], the inhibition at 0.05 µg/mL at DGAT1 enzyme is at least 50%. For the same compound, the inhibition in vivo at up to 10 mg/kg in the assay with Male C57BL/6N mice is at least 60%.
As to `COc1ccc(C)cc1NC(=O)Nc1ccc2c(c1)CCN(C(=O)O[C@H]1CC[C@H](CC(=O)O)CC1)C2` [Example 23, trans-6-[3-(2-methoxy-5-methyl-phenyl)-ureido]-3,4-dihydro-1H-isoquinoline-2-carboxylic acid 4-carboxymethyl-cyclohexyl ester], the inhibition at 0.05 µg/mL at DGAT1 enzyme is at least 50%. For the same compound, the inhibition in vivo at up to 10 mg/kg in the assay on Male C57BL/6N mice was at least 60%.
In the same order, the values of `CCOc1ccccc1NC(=O)Nc1ccc2c(c1)CCN(C(=O)O[C@H]1CC[C@H](CC(=O)O)CC1)C2` [Example 26, trans-6-[3-(2-ethoxy-phenyl)-ureido]-3,4-dihydro-1H-isoquinoline-2-carboxylic acid 4-carboxymethyl-cyclohexyl ester] are at least 50% and at least 60%.

The values are drawn from patent US8735425B2, “Tetrahydroisoquinoline derivative” (Daiichi Sankyo Company, Limited, priority 2008, dated 2014).
